Patent US20080031950A1, “Novel anelgesic combination” (NECTID INC., priority 2007, published 2008)
Counter-ions that a name gives are not always drawn.

Test system: patients suffering from Chronic non-cancer pain (CNCP)
Experiment: Controlled human clinical trial, pain scored by visual analogue scale (VAS)
Format: in vivo
Conditions: mean ± SD, N = 10
Procedure: A typical study determined the efficacy of tramadol and […] as monotherapy and a combination of naproxen and a slow release tramadol for the treatment of pain and pain related conditions
• Tramadol hydrochloride: Generic Tramadol Hydrochloride tablets 50 mg, • Naproxen: Generic Neproxen tablets 250 mg • Slow Release Tramadol Hydrochloride: a) Example 1, b) Ultram ER 100 mg
• Treatment Drugs per day per patient • 1. Treatment A; Tramadol hydrochloride 100 mg • 2. Treatment B: Naproxen 250 mg • 3. Treatment C: Example 1 • 4. Treatment D: Ultram ER 100 mg+Naproxen 250 mg • 5. Treatment E: Example 2
The administered dosage comprised either tramadol hydrochloride (100 mg) or naproxen 250 mg or a combination of naproxen (250 mg) and slow release tramadol hydrochloride (100 mg) selected from Treatments D or a combination of naproxen 250 mg and a slow release tramadol 100 mg (Treatment C) was administered once a day to the patients in a long-term clinical trial.
40 patients were used in a clinical trial were suffering from Chronic non-cancer pain (CNCP), defined as pain for longer than 6 months, including neuropathic pain, osteoarthritis, rheumatoid arthritis, fibromyalgia, and back and musculoskeletal pain were included in the clinical trial. No effort was made to segregate the patients based on the type of pain nor did we evaluate the extent of pain relief on the basis of pain type.
Those patients with migraines, dental pain, abdominal pains (from chronic pancreatitis, kidney stones, etc.) and ischemic pain from vascular disease were excluded because they are usually not classified as CNCP. Patients with history of addiction (alcohol or drugs) were excluded from the trials
Randomization was performed with computer-generated random numbers in blocks of 10. Randomization codes of the monotherapy or combination therapy treatments were placed in sequentially numbered, opaque, sealed envelopes in the biopsy center.
Pain was assessed using a visual analogue scale (VAS) graded from 0-100 mm. Pain scoring was performed every three hours after drug administration for a total of 48 hours.
The patients were taught with a standard method by the physician how to use a VAS scoring from 0 to 100 mm to grade the intensity of pain experienced during the treatment. On that scale, the left endpoint, 0, was defined as no pain and the right endpoint 100, as the worst pain the patient could imagine. There were no further marks on the line. The intensity of pain was indicated by the distance in millimeters from the left end. Patients were asked to grade the pain intensity immediately after the administration of drugs and every three hour after for 24 hours by drawing a vertical line over each VAS line. The doctors who prescribed the medicines obtained all the VAS forms for that specific patient.
Data are expressed as means±SD. Differences in VAS were analyzed with use of the unpaired Student t test and differences in pain score reductions between the two groups were analyzed with use of the Mann-Whitney U test for the median difference. Similar statistical tests were used for between group comparisons of other outcome variables as appropriate. A two tailed P value of less than. […] SAS software was used for the statistical analysis.
We considered that a clinically significant benefit of using […] and slow release tramadol would be a reduction in the pain score (VAS) of at least 15% compared to the monotherapy with either tramadol hydrochloride or naproxen or placebo. Alternatively, the dose reduction of at least 15% of either NSAID or tramadol when used as combination over the monotherapy as significant benefit

[1] = VAS time 0 hours, scale 0-100 mm

SMILES | Pain scored by VAS [1] [mm] | Pain scored by VAS (VAS time 3 hours) [mm] | Pain scored by VAS (VAS time 6 hours) [mm] | Pain scored by VAS (VAS time 9 hours) [mm] | Pain scored by VAS (VAS time 12 hours) [mm] | Pain scored by VAS (VAS time 15 hours) [mm] | Pain scored by VAS (VAS time 18 hours) [mm] | Pain scored by VAS (VAS time 21 hours) [mm] | Pain scored by VAS (VAS time 24 hours) [mm]
COc1cccc([C@@]2(O)CCCC[C@@H]2CN(C)C)c1 (racemic) [Treatment A, (±) cis-2-[(dimethylamino)methyl]-1-(3-methoxyphenyl)cyclo-hexanol hydrochloride] | 32.4 ± 21.2 | 23.1 ± 20.1 | 18.8 ± 20.6 | 14.9 ± 17.2 | 13.1 ± 21.2 | 13.9 ± 19.2 | 15.4 ± 21.3 | 14.5 ± 19.2 | 13.9 ± 19.2
COc1ccc2cc([C@H](C)C(=O)O)ccc2c1 [Treatment B, (+)-(S)-2-(6-methoxynaphthalen-2-yl)propanoic acid] | 33.9 ± 19.1 | 18.5 ± 19.1 | 13.9 ± 21.1 | 13.8 ± 20.3 | 14.6 ± 18.6 | 17.1 ± 21.5 | 18.9 ± 19.7 | 20.1 ± 18.3 | 24.8 ± 20.9
